Data published in patent US7390836B2, “Small molecules used to increase cell death” (priority 1999, dated 2008).

Tests used:
BH3/Bcl-xL binding = experiment: SELDI binding assay, unlabeled Bak BH3 peptide on immobilized Bcl-xL-His6
Description: To test the possibility that BH3Is target the OREGON GREEN moiety of the fluorescently labeled BH3 peptide, a novel BH3/Bcl-xL binding assay using unlabeled BH3 peptide was designed. In this assay Bcl-xL was covalently attached to a surface-enhanced laser desorption/ionization (SELDI) chip, and binding of the unlabelled BH3 peptide to the immobilized protein was monitored by mass spectrometry. Specifically, purified recombinant GST-Bcl-2 and BCL-xL-His6 were coupled through their primary amines to SELDI chip surfaces derivatized with carbonyldiimidazole (Ciphergen). Bak BH3 peptide was then added (in a total volume of 1 μl) for 12 hours at 4° C. in a humidified chamber, to allow binding to each spot of the SELDI chip. The chip was then washed with alternating high and low pH-0.1M sodium acetate with 0.5M NaCl, followed by 0.01M HEPES; pH 7.3. The samples were embedded in α-cyanno-4-hydroxycinnamaic acid matrix and analyzed for mass by MALDI TOF. An average of 100 laser shots at a constant setting were collected over 20 spots in each sample.

Bcl-xL = biological target: T1, Bcl-xL (Homo sapiens, UniProt Q07817, DEL45-84); experiment: Bcl-xL pore formation, carboxyfluorescein release from liposomes; assay type: biochemical; settings: 5 μM Bcl-xL-His6, pH 4.0
T1 construct: His6 (C); made in house
T1 sequence (Q07817 with tags, fused parts or gaps DEL45-84 limits assumed): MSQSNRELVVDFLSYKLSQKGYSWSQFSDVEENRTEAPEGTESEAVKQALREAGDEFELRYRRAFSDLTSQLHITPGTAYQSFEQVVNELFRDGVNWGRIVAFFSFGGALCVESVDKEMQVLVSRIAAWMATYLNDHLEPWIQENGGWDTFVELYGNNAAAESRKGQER
Description: Bcl-xL forms membrane pores, and the formation of these pores may play a role in Bcl-xL's ability to regulate apoptosis. Thus, the effects of the BH3Is on pore formation by Bcl-xL were tested (Minn, et al., Nature 385:353-7, 1997; Schendel et al., Proc. Natl. Acad. Sci. USA 94:5113-8, 1997; Minn et al., EMBO J. 18:632-43,1999; and Matsuyama et al., J. Biol. Chem. 273:30995-1001, 1998). Liposomes containing 20 mM of 5,6-carboxyfluorescein were prepared as previously described (Antonsson, et al., Science 277:370-2,1997). For Bcl-xL pore formation 5 μM Bcl-xL-His6 was preincubated with BH3I-2 or Bak BH3 peptide in 50 μl of 5 mM sodium citrate, 150 mM NaCl, pH 4.0 buffer for 10 min at 25° C., followed by addition of 5 μl of undiluted liposomes. Prior to determination of the fluorescence pH was adjusted by adding 10 μl of 1.5 M Tris-HCl, pH 7.5.

Sequence: KGGGQVGRQLAIIGDDINR (SEQ ID NO: 2) (BAK) [BH3 peptide, nineteen amino acid Bak peptide corresponding to the BH3 domain of Bak, reference compound]
- binding of BH3 peptide to Bcl-xL-modified surface (BH3/Bcl-xL binding): bound to the Bcl-xL-modified surface in a dose-dependent fashion
- Bcl-xL-mediated release of carboxyfluorescein from liposomes (Bcl-xL): Neither BH3Is nor BH3 peptide affected
